Data published in publication PMC8307384, “Characterization of Two α-L-Arabinofuranosidases from Acetivibrio mesophilus and Their Synergistic Effect in Degradation of Arabinose-Containing Substrates” (Microorganisms, 2021).

Target: T1, AmAraf51 (Acetivibrio mesophilus, UniProt A0A4Q0I2R2)
T1 construct: gene EFD62_11990; complete ORF, 509 residues, no signal peptide; N-terminal His6 tag (not reported cut); E. coli ArcticExpress (DE3), pET24c
Experiment: TLC of hydrolysis products
Assay type: biochemical
Conditions: 85 nM enzyme, 0.5 g/L substrate, pH 6.0, 60 °C

T1 sequence (A0A4Q0I2R2 entry or part of it): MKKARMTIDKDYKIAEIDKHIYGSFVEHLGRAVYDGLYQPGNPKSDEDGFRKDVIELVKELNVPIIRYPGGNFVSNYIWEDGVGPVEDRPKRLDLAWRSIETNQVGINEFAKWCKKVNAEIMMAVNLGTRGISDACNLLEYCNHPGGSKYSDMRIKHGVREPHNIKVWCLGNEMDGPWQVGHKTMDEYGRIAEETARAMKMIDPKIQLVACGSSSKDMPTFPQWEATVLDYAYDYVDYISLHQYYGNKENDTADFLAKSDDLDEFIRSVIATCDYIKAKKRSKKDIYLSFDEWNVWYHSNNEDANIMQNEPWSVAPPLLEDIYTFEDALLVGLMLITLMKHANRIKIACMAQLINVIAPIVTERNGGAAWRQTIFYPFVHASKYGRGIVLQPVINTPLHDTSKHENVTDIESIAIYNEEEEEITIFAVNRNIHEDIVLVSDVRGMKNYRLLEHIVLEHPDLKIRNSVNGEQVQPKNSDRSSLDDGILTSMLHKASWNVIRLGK

`OC[C@@H]1O[C@@H](OC[C@@H]2O[C@@H](OC[C@@H]3OC(O)[C@H](O)[C@H]3O)[C@H](O)[C@H]2O)[C@H](O)[C@H]1O` (stereo partly shown) [A3, arabinotriose] was tested, and the “TLC of hydrolysis products” value was “incubation of AmAraf51 with three different AOS led to their almost complete hydrolysis to arabinose”.
